Test results reported in US11981951B2, “Process for the production of methyl methacrylate” (Mitsubishi Chemical UK Limited, priority 2016, dated 2024).
Values after ≈ are worked out from the molar mass of the structure shown. Where two headings read alike, the source gives them in different places.

Columns and labels:
[1] = system: E. coli strain MG1655; test: Growth inhibition (methacrylate ester toxicity) test, E. coli; type: cell-based; settings: Escherichia coli
[2] = system: S. cerevisiae strain DSM70449; test: Growth inhibition (methacrylate ester toxicity) test, S. cerevisiae; type: cell-based; settings: Saccharomyces cerevisiae, read-out: IC50 range
[3] = logPo/w (1-octanol/water partition coefficient); type: physicochemical
Excerpt: In embodiments, the organic solvent has a logPo/w value of greater than or equal to 3.0. More preferably, the organic solvent has a logPo/w value of greater than or equal to 3.6, 3.7, 3.8, 3.9 or 4.0. logPo/w is defined as the logarithm of the partition coefficient of a particular solvent between a standardized 1:1 mixture of 1-octanol and water. The present inventors have shown that, with increasing logPo/w value there is a decrease in the resultant microorganism toxicity. Particularly preferred solvents are higher alkanes of C6 and above which may be linear or branched, cyclic alkanes of C7 and above and aromatic compounds, particularly benzene, substituted with one or more substituents of C3 and above, particularly alkyl substituents which may be linear or branched.

[4] = Solubility limit in the fermentation medium; type: physicochemical; settings: plasma or biological fluid
Protocol: In embodiments where the C3-C12 methacrylate ester is butyl methacrylate, it is particularly preferred that the titre of butyl methacrylate in the fermentation medium is at least 120, 130, 140, 150 or 200 mg/l. […] At such a concentration, the need for an additional extraction solvent may be negated.

[5] = Extraction of BMA and MMA from biotransformation medium into dodecane (GC-FID); type: physicochemical; settings: for average amount extracted into dodecane: across all samples
Protocol: The samples from the BMA/MMA extraction experiments were analysed using gas chromatography under the following operating conditions:
Biomass was harvested from each flask and a separate biotransformation conducted. BMA and MMA levels in dodecane following solvent extraction was quantified by gas chromatography flame ionization detector (GC-FID).
In a 1 I baffled shake flask, a starter culture of 200 ml LB medium containing 200 µg/ml ampicillin was grown for 16.33 hours. The culture was back diluted to OD600 0.2 into 5 1 I baffled shake flasks containing 300 ml fresh LB medium and left to grow at 30° C. and 250 rpm for 23.35 hours. The biomass was then harvested by centrifugation at 5000 rpm and 4° C. for 15 minutes. Each cell pellet was washed with 100 mM sodium phosphate (pH 6.7) and the centrifugation step was repeated. The biomass was resuspended in the required volume of biotransformation medium until an OD600 of 25 was reached.
Biotransformation reactions were conducted in 5×250 ml sealed Schott bottles at 30° C. and 180 rpm for 24 hours.
Samples were taken for GC-FID analysis at 5 hour and 24 hour time points. At each time point 5 ml sample was removed and transferred to a 15 ml falcon tube. Acetonitrile (5 ml) was added in addition to dodecane (1 ml). The mixture was vigorously shaken at >800 rpm for 10 minutes before centrifugation at 3900 rpm and 20° C. for 20 minutes. A 500 μl sample was taken from both the organic and aqueous phases, filtered through a 0.45 μm filter and placed in a crimped lid gas chromatography vial prior to injection.
Quantification of BMA and MMA levels in biotransformation samples was achieved by using external standard calibration […] obtained by preparing volumetric stock solutions of BMA and MMA at known concentrations.

[6] = MG1655, E. coli grown in MSX medium, from final biomass concentrations, read-out: IC50 range
[7] = E. coli MG1655 in LB complex medium, final biomass after 72 hours, concentration that halves MaxOD600, read-out: IC50 range
[8] = S. cerevisiae DSM70449 in YEPD complex medium, final biomass after 72 hours, concentration that halves MaxOD600

| SMILES | IC50 [1, 6] | IC50 [1, 7] | IC50 [2, 8] | logPo/w [3] | logPo/w ([3]; 1-octanol/water (1:1)) | solubility [4] | average amount extracted into dodecane [5] | extraction efficiency into dodecane compared to MMA ([5]; biotransformations 2 and 3 (40 mg/l added)) | extraction efficiency into dodecane compared to MMA ([5]; biotransformations 4 and 5 (100 mg/l added)) | IC50 ([1]; MG1655, 72 h, read-out: IC50 range) | IC50 ([1]; MG1655, read-out: IC50 range) | IC50 ([2]; DSM70449, 72 h) |
| --- | --- | --- | --- | --- | --- | --- | --- | --- | --- | --- | --- | --- |
| C=C(C)C(=O)OC(C)C [iPMA, isopropyl methacrylate] | 1180 to 1770 mg/L (≈ 9.21 to 13.8 mM) | 1180 to 1770 mg/L (≈ 9.21 to 13.8 mM) | 660 to 990 mg/L (≈ 5.15 to 7.72 mM) | 1.81 |  |  |  |  |  |  |  |  |
| C=C(C)C(=O)OCCCC [BMA, butyl methacrylate] | 70 to 110 mg/L (≈ 0.492 to 0.774 mM) | 70 to 110 mg/L (≈ 0.492 to 0.774 mM) | 40 to 70 mg/L (≈ 0.281 to 0.492 mM) |  | 2.57 | ~0.22 mg/mL (≈ 1.55 mM) | around 35.6% | 2.7 × | 3.3 × |  |  |  |
| C=C(C)C(=O)OC [MMA, methyl methacrylate] |  |  |  |  | 0.95 |  | ~10.5% |  |  | 3190 to 4250 mg/L (≈ 31.9 to 42.5 mM) | 3190 to 4250 mg/L (≈ 31.9 to 42.5 mM) | 730 to 1450 mg/L (≈ 7.29 to 14.5 mM) |
